Test results: article PMC8219695 (Nature Communications, 2021)
Values joined by “and” are separate entries in the source; they are usually repeats but may differ in a detail not shown here. Equal values may be shown once.

How the values were obtained:
hDOR = hDOR (Homo sapiens, UniProt P41143); experiment: CAMYEL BRET cAMP agonist assay at hDOR; assay type: cell-based; details: for Agonist activity of 7OH analogs at hDOR: single replicate values, Supplementary Figure 7A
rKOR = biological target: T1, rKOR (Rattus norvegicus, UniProt P34975); experiment: CAMYEL BRET cAMP agonist assay at rKOR; assay type: cell-based; details: individual replicates, Supplementary Figure 8B source data
T1 construct: expressed in transfected cells

hKOR = hKOR (Homo sapiens, UniProt P41145); experiment: CAMYEL BRET cAMP agonist assay at hKOR; assay type: cell-based; details: individual replicates, Supplementary Figure 8A source data
CD1 mice = experiment: Tail-flick antinociception in CD1 mice; assay type: in vivo, mouse; details: for Tail flick (%MPE), average / Tail flick latency in secs, Av / Tail flick (%MPE) / Tail flick latency / Tail flick latency in secs, mean: sc; for Tail flick (%MPE), average / Tail flick latency in secs, Av: average of 11 animals; for Tail flick (%MPE) / Tail flick latency: individual animals; for Tail flick latency in secs, mean: mean of 8 animals

hDOR, sequence (P41143 whole entry): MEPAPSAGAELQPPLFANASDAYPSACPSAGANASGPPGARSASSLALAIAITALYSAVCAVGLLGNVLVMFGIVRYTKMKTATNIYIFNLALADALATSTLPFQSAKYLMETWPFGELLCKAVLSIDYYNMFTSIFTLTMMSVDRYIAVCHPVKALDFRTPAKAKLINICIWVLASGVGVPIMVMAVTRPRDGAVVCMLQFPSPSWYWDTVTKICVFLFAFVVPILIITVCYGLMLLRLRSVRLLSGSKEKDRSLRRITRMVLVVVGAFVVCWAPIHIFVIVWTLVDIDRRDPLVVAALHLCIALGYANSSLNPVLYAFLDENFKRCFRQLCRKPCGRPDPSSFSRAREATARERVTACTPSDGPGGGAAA
T1 sequence (P34975 whole entry): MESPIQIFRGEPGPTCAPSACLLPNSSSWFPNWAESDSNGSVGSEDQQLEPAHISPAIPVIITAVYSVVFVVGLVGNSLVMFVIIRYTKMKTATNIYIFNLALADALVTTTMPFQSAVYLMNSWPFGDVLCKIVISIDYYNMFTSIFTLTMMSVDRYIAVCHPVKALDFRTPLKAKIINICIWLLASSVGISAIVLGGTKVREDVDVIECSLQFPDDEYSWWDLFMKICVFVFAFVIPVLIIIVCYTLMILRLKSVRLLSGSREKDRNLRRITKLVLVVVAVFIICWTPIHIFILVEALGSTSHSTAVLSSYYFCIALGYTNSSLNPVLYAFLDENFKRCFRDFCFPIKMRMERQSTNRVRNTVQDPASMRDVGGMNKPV
hKOR, sequence (P41145 whole entry): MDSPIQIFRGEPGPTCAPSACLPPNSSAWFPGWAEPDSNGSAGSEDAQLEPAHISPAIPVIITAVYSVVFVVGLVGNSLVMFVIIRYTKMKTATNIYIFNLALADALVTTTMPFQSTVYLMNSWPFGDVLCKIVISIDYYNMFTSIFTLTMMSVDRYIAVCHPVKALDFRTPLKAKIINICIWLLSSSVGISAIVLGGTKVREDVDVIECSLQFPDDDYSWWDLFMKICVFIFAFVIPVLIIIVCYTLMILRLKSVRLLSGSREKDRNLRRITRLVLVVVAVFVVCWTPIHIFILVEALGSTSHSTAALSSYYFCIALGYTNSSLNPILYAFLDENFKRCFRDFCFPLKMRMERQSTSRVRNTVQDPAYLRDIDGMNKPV

Q: For `CC[C@@H]1CN2CC[C@@]3(O)C(=Nc4cc(F)cc(OC)c43)[C@@H]2C[C@@H]1/C(=C\OC)C(=O)OC` [11-F-7OH (22), 11-Fluoro-7-hydroxymitragynine], which “Agonist activity of 7OH analogs at hDOR” value (hDOR; Log[drug] (M) -6) is on record?
A: Its value is 34.2535 and 17.385 and 29.3707 and 32.2245 and 19.3851 and 24.4275 and 22.3041 and 14.4734 and 13.6453.

Q: And the “Agonist activity of 7OH analogs at hDOR” value (hDOR; Log[drug] (M) -7)?
A: Its value is 30.3483 and 21.8663 and 22.0325 and 12.2379 and 10.9328 and 13.3432 and 3.216 and 7.058 and 2.651.

Q: What about the “Agonist activity of 7OH analogs at hDOR” value (hDOR; Log[drug] (M) -8) of the same compound?
A: Its value is 2.89 and -16.6078 and 13.7181 and 1.455 and 8.915 and -8.089 and -4.58 and 2.715 and 18.3397.

Q: And the “Agonist activity of 7OH analogs at hDOR” value (hDOR; Log[drug] (M) -9)?
A: The value was 8.34 and 5.8475 and -3.905 and -8.29 and 12.1949 and 6.438 and 2.013 and 5.417.

Q: And the “Agonist activity of 7OH analogs at hDOR” value (hDOR; Log[drug] (M) -10)?
A: Its value is 4.091 and -4.63 and 8.526 and 11.2871 and -1.147 and 9.891 and 2.3909 and 3.977 and 19.4184.

Q: And the “Agonist activity of 7OH analogs at hDOR” value (hDOR; Log[drug] (M) -11)?
A: The value was -7.5527 and 10.3457 and 6.839 and 6.552 and 7.529 and 1.024 and 18.8483 and 4.15 and -0.7846.

Q: And the “Agonist activity of 7OH analogs at hDOR” value (hDOR; Log[drug] (M) -13)?
A: Its value is -0.5197 and 3.103 and 0.8755 and 5.994 and 5.535 and -9.529 and 9.805 and -0.2765.

Q: And the EC50 (hDOR; hDOR cAMP BRET, read-out: EC50)?
A: The EC50 was 151 nM.

Q: And the Emax (hDOR; read-out: Emax)?
A: Its Emax is 26%.

Q: And the “Agonist activity of 7OH analogs at rKOR” value (rKOR; Log [drug](M) -5)?
A: The value was 22.082 and 29.1799 and 24.9804 and 9.107 and 13.0188 and 13.182 and 6.083 and 2.973 and 4.112.

Q: And the “Agonist activity of 7OH analogs at rKOR” value (rKOR; Log [drug](M) -6)?
A: The value was 13.2987 and 25.9578 and 3.4416 and 5.534 and 11.6761 and -0.5648 and 7.283 and 13.1071 and 4.997.

Q: What about the “Agonist activity of 7OH analogs at rKOR” value (rKOR; Log [drug](M) -7) of the same compound?
A: The value was 18.031 and 31.9599 and 33.0367 and -2.212 and 3.5973 and -1.385 and 1.635 and 2.31 and 9.2799.

Q: What about the “Agonist activity of 7OH analogs at rKOR” value (rKOR; Log [drug](M) -8) of the same compound?
A: Its value is 5.787 and -5.909 and 29.0355 and 11.9094 and 9.551 and -12.1962 and 10.3961 and -3.525 and 1.154.

Q: What about the “Agonist activity of 7OH analogs at rKOR” value (rKOR; Log [drug](M) -9) of the same compound?
A: Its value is 2.374 and 3.557 and 1.503 and 17.2927 and 4.288 and -5.051 and 9.998 and -1.969 and -2.384.

Q: And the “Agonist activity of 7OH analogs at rKOR” value (rKOR; Log [drug](M) -10)?
A: The value was 1.539 and 1.5713 and -3.1102 and 5.6014 and 10.9469 and 10.7639 and 2.853 and 4.901 and 1.67.

Q: And the “Agonist activity of 7OH analogs at rKOR” value (rKOR; Log [drug](M) -11)?
A: The value was -1.844 and 21.6085 and 6.867 and 10.1299 and 11.9047 and -4.025 and 6.309 and -3.657 and -2.652.

Q: What about the “Agonist activity of 7OH analogs at rKOR” value (rKOR; Log [drug](M) -13) of the same compound?
A: The value was 18.2754 and 7.8104 and 16.2642 and 12.0322 and 1.984 and 9.1095 and -1.886 and 4.583 and -1.369.

Q: What about the “Agonist activity of 7OH analogs at hKOR” value (hKOR; Log [drug](M) -5) of the same compound?
A: The value was 12.7288 and 7.6957 and 5.691 and 5.203 and 10.1397 and 6.346 and 11.5584 and 16.2136 and 8.114.

Q: And the “Agonist activity of 7OH analogs at hKOR” value (hKOR; Log [drug](M) -6)?
A: The value was 4.1678 and -6.234 and -2.623 and -0.4626 and 5.449 and 14.973 and 13.878 and 7.062 and 8.9598.

Q: And the “Agonist activity of 7OH analogs at hKOR” value (hKOR; Log [drug](M) -7)?
A: The value was 15.7968 and 0.7988 and 22.403 and -2.445 and 4.302 and 10.7854 and 12.9808 and 8.955 and 17.6223.

Q: What about the “Agonist activity of 7OH analogs at hKOR” value (hKOR; Log [drug](M) -8) of the same compound?
A: Its value is 4.851 and -3.884 and -5.474 and 6.013 and -0.3123 and 2.012 and 9.524 and 10.5291 and 12.8743.

Q: What about the “Agonist activity of 7OH analogs at hKOR” value (hKOR; Log [drug](M) -9) of the same compound?
A: Its value is -6.272 and 9.969 and -14.9547 and 3.87 and -4.029 and 4.071 and 2.29 and -8.644 and 9.488.

Q: And the “Agonist activity of 7OH analogs at hKOR” value (hKOR; Log [drug](M) -10)?
A: Its value is -8.62 and -13.3054 and -5.371 and -6.566 and 5.6803 and 0.6674 and -0.4006 and -4.716 and 0.9825.

Q: What about the “Agonist activity of 7OH analogs at hKOR” value (hKOR; Log [drug](M) -11) of the same compound?
A: Its value is -18.0186 and -16.1556 and -9.7654 and -4.481 and 6.079 and -3.726 and -2.3334 and -2.856 and -4.795.

Q: And the “Agonist activity of 7OH analogs at hKOR” value (hKOR; Log [drug](M) -13)?
A: Its value is 2.027 and -5.796 and 3.769 and 2.62 and 6.896 and -9.516 and -3.456 and 3.959 and -0.5033.

Q: And the “duration of residual analgesic effect” value (CD1 mice; 5 mg/kg s.c., CD1 mice)?
A: Its value is “at least 120 min”.

Q: And the “time of peak analgesic effect post injection” value (CD1 mice; 5 mg/kg s.c., CD1 mice)?
A: Its value is 15 min.

Q: What about the partial analgesic efficacy (CD1 mice; 5 mg/kg s.c., CD1 mice, tail-flick) of the same compound?
A: The partial analgesic efficacy was under 40 % MPE.

Q: And the “Tail flick (%MPE), average” value (CD1 mice; 5 mg/kg, 15 min)?
A: Its value is 38 %MPE.

Q: And the “Tail flick latency in secs, Av” value (CD1 mice; 5 mg/kg, 15 min)?
A: The value was 5.1 s.

Q: What about the “Tail flick (%MPE)” value (CD1 mice; 5 mg/kg, 15 min) of the same compound?
A: The value was 53 %MPE and 57 %MPE and 20 %MPE and 21 %MPE and 30 %MPE (2×) and 35 %MPE and 62 %MPE and 25 %MPE and 54 %MPE and 27 %MPE.

Q: What about the “Tail flick latency” value (CD1 mice; 5 mg/kg, 15 min) of the same compound?
A: The value was 6.3 secs and 6.7 secs and 3.5 secs and 4.2 secs (2×) and 4.9 secs (2×) and 4.3 secs and 7.0 secs and 4.0 secs and 6.6 secs.

Q: What about the “Tail flick (%MPE), average” value (CD1 mice; 5 mg/kg, 30 min) of the same compound?
A: Its value is 32 %MPE.

Q: What about the “Tail flick latency in secs, Av” value (CD1 mice; 5 mg/kg, 30 min) of the same compound?
A: Its value is 4.7 s.

Q: What about the “Tail flick (%MPE)” value (CD1 mice; 5 mg/kg, 30 min) of the same compound?
A: The value was 15 %MPE and 100 %MPE and 37 %MPE and 11 %MPE and 14 %MPE and 21 %MPE and 19 %MPE and 56 %MPE and 32 %MPE and 4 %MPE and 38 %MPE.

Q: What about the “Tail flick latency” value (CD1 mice; 5 mg/kg, 30 min) of the same compound?
A: Its value is 3.4 secs (2×) and 10.0 secs and 4.9 secs and 3.8 secs and 3.6 secs (2×) and 6.4 secs and 4.6 secs and 2.9 secs and 5.1 secs.

Q: And the “Tail flick (%MPE), average” value (CD1 mice; 5 mg/kg, 60 min)?
A: The value was 13 %MPE.

Q: What about the “Tail flick latency in secs, Av” value (CD1 mice; 5 mg/kg, 60 min) of the same compound?
A: The value was 3.3 s.

Q: What about the “Tail flick (%MPE)” value (CD1 mice; 5 mg/kg, 60 min) of the same compound?
A: The value was 15 %MPE and 34 %MPE and 31 %MPE and -9 %MPE and -7.53 %MPE and 10 %MPE and 8 %MPE and 33 %MPE and 11 %MPE and 2.7 %MPE and 18 %MPE.

Q: And the “Tail flick latency” value (CD1 mice; 5 mg/kg, 60 min)?
A: Its value is 3.4 secs and 4.9 secs and 4.4 secs and 1.9 secs and 2.2 secs and 2.7 secs and 2.8 secs (2×) and 4.6 secs and 2.9 secs and 3.5 secs.

Q: What about the “Tail flick (%MPE), average” value (CD1 mice; 5 mg/kg, 120 min) of the same compound?
A: Its value is 15 %MPE.

Q: What about the “Tail flick latency in secs, Av” value (CD1 mice; 5 mg/kg, 120 min) of the same compound?
A: Its value is 3.4 s.

Q: And the “Tail flick (%MPE)” value (CD1 mice; 5 mg/kg, 120 min)?
A: Its value is 38 %MPE and 44 %MPE and 49 %MPE and -4 %MPE and -12 %MPE and 6 %MPE (2×) and 3.8 %MPE and -1.23 %MPE and 9 %MPE and 22 %MPE.

Q: What about the “Tail flick latency” value (CD1 mice; 5 mg/kg, 120 min) of the same compound?
A: The value was 5.2 secs and 5.7 secs and 5.9 secs and 2.3 secs (2×) and 1.8 secs (2×) and 2.4 secs and 2.5 secs and 3.3 secs and 3.8 secs.

Q: And the “Tail flick (%MPE)” value (CD1 mice; Fig 9b, 5 mg/kg)?
A: The value was 17.7 %MPE and 17.8 %MPE and 17.3 %MPE and 17.1 %MPE and 26.9 %MPE and 34.1 %MPE and 38.3 %MPE and 27.3 %MPE.

Q: And the “Tail flick latency” value (CD1 mice; Fig 9b, 5 mg/kg)?
A: The value was 3.5 s and 4.0 s and 3.3 s and 3.7 s and 4.3 s and 4.6 s and 5.0 s and 4.4 s.

Q: What about the “Tail flick latency in secs, mean” value (CD1 mice; Fig 9b, 5 mg/kg) of the same compound?
A: Its value is 4.1 s.

Q: What about the “Tail flick (%MPE)” value (CD1 mice; Fig 9b, 10 mg/kg) of the same compound?
A: The value was 24.1 %MPE and 13.7 %MPE and 25.9 %MPE and 28.9 %MPE and 26.9 %MPE and 39.0 %MPE and 32.1 %MPE and 27.3 %MPE.

Q: And the “Tail flick latency” value (CD1 mice; Fig 9b, 10 mg/kg)?
A: The value was 4.0 secs (2×) and 3.7 secs and 4.6 secs and 4.3 secs and 5.0 secs and 4.5 secs and 4.4 secs.

Q: What about the “Tail flick latency in secs, mean” value (CD1 mice; Fig 9b, 10 mg/kg) of the same compound?
A: The value was 4.3 s.

Q: What about the “Tail flick (%MPE)” value (CD1 mice; Fig 9b, 25 mg/kg) of the same compound?
A: Its value is 29.1 %MPE and 27.4 %MPE and 42.0 %MPE and 38.2 %MPE and 23.1 %MPE and 36.6 %MPE and 37.0 %MPE and 44.2 %MPE.

Q: What about the “Tail flick latency” value (CD1 mice; Fig 9b, 25 mg/kg) of the same compound?
A: The value was 4.4 secs and 4.7 secs and 5.3 secs (2×) and 4.0 secs and 4.8 secs and 4.9 secs and 5.7 secs.

Q: What about the “Tail flick latency in secs, mean” value (CD1 mice; Fig 9b, 25 mg/kg) of the same compound?
A: The value was 4.9 s.
